Where “and” joins values, the source holds several entries; their conditions need not be identical. Identical values can stand only once.

In one data set the test system is Phytophthora infestans. Kind of data set: whole plant or invertebrate. Type of data set: in vivo. Conditions: tomatoes; for pest or weed control at 1 ppm / pest or weed control at 2 ppm: read-out: Efficacy in % found, Table 4; for pest or weed control at 2 ppm: 2 ppm a.i.; for pest or weed control at 10 ppm: read-out: Efficacy in % found, Table 1.
The next data set relates to Alternaria solani. Kind of data set: whole plant or invertebrate. Type of data set: in vivo. To be noted: for Efficacy in % found: in vivo.
The next data set deals with Venturia inaequalis. In words: Venturia test (apples)/preventive. Type of data set: in vivo. To be noted: for pest or weed control at 4 ppm: Table 10, 4 ppm a.i. As to the method:
To produce a suitable preparation of active compound, 1 part by weight of active compound is mixed with the stated amounts of solvent and emulsifier, and the concentrate is diluted with water to the desired concentration.
To test for preventive activity, young plants are sprayed with the preparation of active compound at the stated rate of application. After the spray coating has dried on, the plants are inoculated with an aqueous conidia suspension of the causal agent of apple scab (Venturia inaequalis) and then remain for 1 day in an incubation cabinet at approximately 20° C. and a relative atmospheric humidity of 100%.
The plants are then placed in a greenhouse at approximately 21° C. and a relative atmospheric humidity of approximately 90%.
The test is evaluated 10 days after the inoculation. 0% means an efficacy which corresponds to that of the untreated control, while an efficacy of 100% means that no disease is observed.

Where [1] appears, read: Venturia inaequalis, 240 h, read-out: Efficacy in % found.
[2] abbreviates: Alternaria solani, 72 h, read-out: Efficacy in % found.
Where [3] appears, read: Phytophthora infestans, 72 h, 1 ppm a.i.
Setting [4] is: Phytophthora infestans, 72 h, 10 ppm a.i.

Protocol for physchem: Measurement of log P values was performed according EEC directive 79/831 Annex V.A8 by HPLC (High Performance Liquid
Chromatography) on reversed phase columns with the following methods:
^[a]Measurement was done at pH 2.3 with 0.1% phosphoric acid and acetonitrile as eluent.

On to `C[C@@]1(c2ccc(Oc3ccccc3)cc2)OC(=O)N(Nc2ccccc2)C1=O` (racemic) [3.9, famoxadone], for which, in the data set with Phytophthora infestans (Phytophthora infestans, 72 h, read-out: Efficacy in % found, Table 5, 2.5 ppm a.i.), the pest or weed control at 2.5 ppm worked out at 30%.
Consider `O=C(Cn1nc(C(F)F)cc1C(F)F)N1CCC(c2nc(C3=NOC(c4c(F)ccc(O)c4F)C3)cs2)CC1` (stereo not drawn) [2-[3,5-bis(difluoromethyl)-1H-pyrazol-1-yl]-1-(4-{4-[5-(2,6-difluoro-3-hydroxyphenyl)-4,5-dihydro-1,2-oxazol-3-yl]-1,3-thiazol-2-yl}piperidin-1-yl)ethanone], for which the chromatographic logP in “physchem” (pH 2.7) is 2.61.
The compound `O=C(Cn1nc(C(F)F)cc1C(F)F)N1CCC(c2nc(C3=NOC(c4c(F)cc(O)cc4F)C3)cs2)CC1` (stereo not drawn) [2-[3,5-bis(difluoromethyl)-1H-pyrazol-1-yl]-1-(4-{4-[5-(2,6-difluoro-4-hydroxyphenyl)-4,5-dihydro-1,2-oxazol-3-yl]-1,3-thiazol-2-yl}piperidin-1-yl)ethanone] registered a chromatographic logP in the data set “physchem” (pH 2.7) of 2.58.
In the case of `Cn1cc(C(=O)Nc2ccc(F)cc2-c2ccc(Cl)c(Cl)c2)c(C(F)F)n1` [2.1, bixafen], the “Efficacy in % found” value in the data set on Alternaria solani is recorded as 60%; in the data set on Venturia inaequalis (Table 10, 0.5 ppm a.i.) it was 26%.
With `O=C(NCCc1ncc(C(F)(F)F)cc1Cl)c1ccccc1C(F)(F)F` [2.6, fluopyram], the pest or weed control at 4 ppm with Venturia inaequalis (setting [1]) came to 33%.
In the case of `Cn1cc(C(=O)Nc2ccccc2-c2cc(F)c(F)c(F)c2)c(C(F)F)n1` [2.8, fluxapyroxad], the “Efficacy in % found” value in the data set on Alternaria solani is 63%; in the data set with Venturia inaequalis (Table 10, 0.5 ppm a.i.), 54%.
As for `CC(C)C1C2CCC1c1c(NC(=O)c3cn(C)nc3C(F)F)cccc12` (stereo not drawn) [2.12, isopyrazam], the “Efficacy in % found” value in the data set on Alternaria solani worked out at 60%; in the data set on Venturia inaequalis (Table 10, 0.5 ppm a.i.), 76%.
As for `COC(c1ccc(Cl)cc1Cl)C(C)NC(=O)c1cn(C)nc1C(F)F` (stereo not drawn) [2.27, N-[1-(2,4-dichlorophenyl)-1-methoxypropan-2-yl]-3-(difluoromethyl)-1-methyl-1H-pyrazole-4-carboxamide], the pest or weed control at 4 ppm with Venturia inaequalis (setting [1]) turned out to be 87%.
Regarding `Cn1cc(C(=O)Nc2cccc3c2C2CCC3C2=C(Cl)Cl)c(C(F)F)n1` (stereo not drawn) [2.29, N-[9-(dichloromethylene)-1,2,3,4-tetrahydro-1,4-methanonaphthalen-5-yl]-3-(difluoromethyl)-1-methyl-1H-pyrazole-4-carboxamide], the pest or weed control at 0.25 ppm with Alternaria solani (setting [2]) stood at 40%.
For `CCCCCCCCc1c(CC)nc2ncnn2c1N` [3.1, ametoctradin], the “Efficacy in % found” value in the data set on Phytophthora infestans (Table 1, 10 ppm a.i.) was found to be 0%; with Phytophthora infestans (Table 5, 2.5 ppm a.i.) it was 52%.
Take `CO/C=C(/C(=O)OC)c1ccccc1Oc1cc(Oc2ccccc2C#N)ncn1` [3.3, azoxystrobin]: the “Efficacy in % found” value in the data set with Alternaria solani is 9%; with Phytophthora infestans (Table 4, 1 ppm a.i.), 0%.
`Cc1ccc(-c2c(Cl)nc(C#N)n2S(=O)(=O)N(C)C)cc1` [3.4, cyazofamid]: the pest or weed control at 0.1 ppm in the data set with Phytophthora infestans (Phytophthora infestans, 72 h, read-out: Efficacy in % found, Table 5, 0.1 ppm a.i.) is 0%.
With `CSC1=N[C@@](C)(c2ccccc2)C(=O)N1Nc1ccccc1` [3.10, fenamidone], in the data set with Phytophthora infestans (Phytophthora infestans, 72 h, read-out: Efficacy in % found, Table 2, 0.25 ppm a.i.), the pest or weed control at 0.25 ppm was 6%.
On to `CO/N=C(/C1=NOCCO1)c1ccccc1Oc1ncnc(Oc2ccccc2Cl)c1F` [3.12, fluoxastrobin], for which the pest or weed control at 0.5 ppm in the data set with Alternaria solani (setting [2]) was determined as 18%. Moreover, the pest or weed control at 1 ppm with Phytophthora infestans (setting [3]) amounted to 0%. Moreover, the pest or weed control at 2 ppm in the data set with Phytophthora infestans (Phytophthora infestans, 72 h) was 0%.
`COC(=O)N(OC)c1ccccc1COc1ccn(-c2ccc(Cl)cc2)n1` [3.17, pyraclostrobin]: in the data set with Alternaria solani (setting [2]), the pest or weed control at 0.25 ppm turned out to be 18%. The pest or weed control at 1 ppm with Phytophthora infestans (setting [3]) was 0%. Besides, the pest or weed control at 2 ppm in the data set on Phytophthora infestans (Phytophthora infestans, 72 h) was found to be 0%.
On to `CON=C(C(=O)OC)c1ccccc1CON=C(C)c1cccc(C(F)(F)F)c1` [3.22, trifloxystrobin], for which the pest or weed control at 0.25 ppm in the data set on Alternaria solani (setting [2]) worked out at 18%; in the data set with Venturia inaequalis (Venturia inaequalis, 240 h, Table 11, 0.25 ppm a.i., read-out: Efficacy in % found), 0%. Besides, the pest or weed control at 1 ppm in the data set with Phytophthora infestans (setting [3]) came out at 0%. Also, the pest or weed control at 2 ppm with Phytophthora infestans (Phytophthora infestans, 72 h) was 0%.
With `Oc1cc(F)c(C2CC(c3csc(C4CCNCC4)n3)=NO2)c(F)c1` (stereo not drawn) [4-{4-[5-(2,6-difluoro-4-hydroxyphenyl)-4,5-dihydro-1,2-oxazol-3-yl]-1,3-thiazol-2-yl}piperidinium chloride], in the data set “physchem” (pH 2.7), the chromatographic logP worked out at 0.98.
Consider `O=C(NCc1ncc(C(F)(F)F)cc1Cl)c1c(Cl)cccc1Cl` [4.6, fluopicolide], for which, in the data set on Phytophthora infestans (Table 5, 0.5 ppm a.i.), the “Efficacy in % found” value is 12%.
For `[Cu+2].[OH-].[OH-]` [5.5, copper hydroxide], in the data set with Alternaria solani, the “Efficacy in % found” value is given as 16%.
For `[Cl-].[Cu+2].[Cu+2].[OH-].[OH-].[OH-]` [5.8, copper oxychloride], the “Efficacy in % found” value with Alternaria solani is 7%; in the data set on Venturia inaequalis (Table 11, 50 ppm a.i.), 54%; with Phytophthora infestans (Table 2, 5 ppm a.i.), 12%; in the data set with Phytophthora infestans (Table 2, 10 ppm a.i.) it was 10%.
For `C#CCOc1ccc(CCNC(=O)C(OCC#C)c2ccc(Cl)cc2)cc1OC` (stereo not drawn) [9.5, mandipropamid], in the data set on Phytophthora infestans (Table 1, 0.2 ppm a.i.), the “Efficacy in % found” value came to 0%.
For `O=[N+]([O-])c1cc(C(F)(F)F)c(Cl)c([N+](=O)[O-])c1Nc1ncc(C(F)(F)F)cc1Cl` [14.4, fluazinam], in the data set on Phytophthora infestans (setting [4]), the pest or weed control at 10 ppm was determined as 0%.
Take `CCNC(=O)NC(=O)/C(C#N)=N/OC` [15.9, cymoxanil]: the pest or weed control at 10 ppm in the data set on Phytophthora infestans (setting [4]) turned out to be 0%.
For the compound `OP(O)O` [15.41, phosphorous acid], the “Efficacy in % found” value in the data set on Phytophthora infestans (Table 1, 10 ppm a.i.) is listed as 0%.
Regarding `Cn1c(=O)c2sc3c(=O)n(C)c(=O)c3sc2c1=O` [15.60, 2,6-dimethyl-1H,5H-[1,4]dithiino[2,3-c:5,6-c′]dipyrrole-1,3,5,7(2H,6H)-tetrone], the pest or weed control at 25 ppm in the data set with Alternaria solani (setting [2]) stood at 29%; in the data set with Venturia inaequalis (Venturia inaequalis, 240 h, Table 11, 25 ppm a.i., read-out: Efficacy in % found) it was 54%. Further, in the data set on Phytophthora infestans (Phytophthora infestans, 72 h, read-out: Efficacy in % found, Table 2, 5 ppm a.i.), the pest or weed control at 5 ppm was 49%.
`C#CCOc1cccc(C2CC(c3csc(C4CCN(C(=O)Cn5nc(C(F)F)cc5C(F)F)CC4)n3)=NO2)c1` (stereo not drawn) [(I-3), 2-[3,5-bis(difluoromethyl)-1H-pyrazol-1-yl]-1-[4-(4-{5-[3-(prop-2-yn-1-yloxy)phenyl]-4,5-dihydro-1,2-oxazol-3-yl}-1,3-thiazol-2-yl)piperidin-1-yl]ethanone]: the chromatographic logP in “physchem” (pH 2.7) is 3.16; in the data set “physchem” (pH 7.8), 3.24.
With `C#CCOc1cc(F)c(C2CC(c3csc(C4CCN(C(=O)Cn5nc(C(F)F)cc5C(F)F)CC4)n3)=NO2)c(F)c1` (stereo not drawn) [(I-4), 2-[3,5-bis(difluoromethyl)-1H-pyrazol-1-yl]-1-[4-(4-{5-[2,6-difluoro-4-(prop-2-yn-1-yloxy)phenyl]-4,5-dihydro-1,2-oxazol-3-yl}-1,3-thiazol-2-yl)piperidin-1-yl]ethanone], the chromatographic logP in “physchem” (pH 2.7) was determined as 3.3.
On the same count and under the same terms, as for `C#CCOc1ccc(F)c(C2CC(c3csc(C4CCN(C(=O)Cn5nc(C(F)F)cc5C(F)F)CC4)n3)=NO2)c1F` (stereo not drawn) [(I-7), 2-[3,5-bis(difluoromethyl)-1H-pyrazol-1-yl]-1-[4-(4-{5-[2,6-difluoro-3-(prop-2-yn-1-yloxy)phenyl]-4,5-dihydro-1,2-oxazol-3-yl}-1,3-thiazol-2-yl)piperidin-1-yl]ethanone], the figure is 3.17.
On to `C#CCOc1ccc(F)cc1C1CC(c2csc(C3CCN(C(=O)Cn4nc(C(F)F)cc4C(F)F)CC3)n2)=NO1` (stereo not drawn) [(I-8), 2-[3,5-bis(difluoromethyl)-1H-pyrazol-1-yl]-1-[4-(4-{5-[5-fluoro-2-(prop-2-yn-1-yloxy)phenyl]-4,5-dihydro-1,2-oxazol-3-yl}-1,3-thiazol-2-yl)piperidin-1-yl]ethanone], for which the chromatographic logP was found to be 3.37 in the data set “physchem” (pH 2.7) and 3.44 in the data set “physchem” (pH 7.8).
As to `C#CCOc1cc(OC)ccc1C1CC(c2csc(C3CCN(C(=O)Cn4nc(C(F)F)cc4C(F)F)CC3)n2)=NO1` (stereo not drawn) [(I-9), 2-[3,5-bis(difluoromethyl)-1H-pyrazol-1-yl]-1-[4-(4-{5-[4-methoxy-2-(prop-2-yn-1-yloxy)phenyl]-4,5-dihydro-1,2-oxazol-3-yl}-1,3-thiazol-2-yl)piperidin-1-yl]ethanone], the values for the chromatographic logP in the data set “physchem” (pH 2.7) and in the data set “physchem” (pH 7.8) were 3.25 and 3.2, respectively.
Take `C#CCOc1c(F)cccc1C1CC(c2csc(C3CCN(C(=O)Cn4nc(C(F)F)cc4C(F)F)CC3)n2)=NO1` (stereo not drawn) [(I-10), 2-[3,5-bis(difluoromethyl)-1H-pyrazol-1-yl]-1-[4-(4-{5-[3-fluoro-2-(prop-2-yn-1-yloxy)phenyl]-4,5-dihydro-1,2-oxazol-3-yl}-1,3-thiazol-2-yl)piperidin-1-yl]ethanone]: the chromatographic logP was 3.37 in “physchem” (pH 2.7) and 3.48 in “physchem” (pH 7.8).
Take fosetyl-aluminium [15.24]: the “Efficacy in % found” value with Phytophthora infestans (Table 1, 10 ppm a.i.) was found to be 0%.
metiram [5.25]: the “Efficacy in % found” value stood at 36% in the data set with Alternaria solani; 12% with Phytophthora infestans (Table 2, 5 ppm a.i.); 24% in the data set with Phytophthora infestans (Table 2, 10 ppm a.i.).
In the case of propamocarb hydrochloride [10.10], the “Efficacy in % found” value was determined as 7% in the data set on Phytophthora infestans (Table 2, 5 ppm a.i.) and 18% in the data set with Phytophthora infestans (Table 4, 10 ppm a.i.).
In the case of propineb [5.29], the “Efficacy in % found” value is 2% and 0% in the data set with Alternaria solani; 24% in the data set on Phytophthora infestans (Table 3, 10 ppm a.i.).

For the origin of these results see patent publication US9144238B2, “Active compound combinations” (BAYER INTELLECTUAL PROPERTY GMBH, priority 2011, dated 2015).
